Results from US20260347364A1, “PYRAZOLO[4,3-F]QUINAZOLINE DERIVATIVES AS MODULATORS OF G12D MUTANT KRAS USEFUL FOR THE TREATMENT OF CANCER” (JAZZ PHARMACEUTICALS IRELAND LTD., priority 2023, published 2026).
pIC50: −log10 of the molar value.

Experiments:
KRAS G12D = molecular target: T1, KRAS G12D (Homo sapiens, UniProt P01116, G12D); test: HTRF nucleotide exchange assay, KRAS G12D; format: biochemical; details: class symbols; for pIC50: HTRF nucleotide exchange assay (NEA)
T1 construct: aa1-188 KRAS WT, HRAS WT, NRAS WT, or KRAS containing the G12D
Description: (§1) HTRF Nucleotide Exchange Assay Method
(§2) The capacity of compounds to bind KRAS G12D, other KRAS mutants and wildtype RAS isoforms was quantified using a HTRF nucleotide exchange assay. Recombinant human RAS protein (2 nM; aa1-188 KRAS WT, HRAS WT, NRAS WT, or KRAS containing the G12D, G13D or Q61H amino acid substitutions, or 4 nM KRAS; aa1-188 containing the G12V, G12C, G12A or G12S amino acid substitution, an N-terminal 6× His-tag and leader sequence), and 2 nM Europium-labeled anti-6× His antibody were mixed in assay buffer (10 mM HEPES pH 7.3, 150 mM NaCl, 5 mM MgCl2, 0.05% BSA, 0.0025% NP-40 and 100 mM KF) with various concentrations of compound in a 384-well plate and a volume of 5 μL. After a 60-minute incubation at room temperature, 5 μl of 200 nM EDA-GTP-DY647P1 (diluted in assay buffer) was added to the plate. Following 30-minute incubation at room temperature, time-resolved fluorescence was measured on a PerkinElmer Envision plate reader. DMSO (0.3%) and unlabeled GDP (1 μM) or equivalent tool compound were used to generate the Max and Min assay signals, respectively. Data was analysed using a four-parameter logistic model to calculate IC50 values, with at least two independent replicates were performed for each compound. The results are presented as IC50s in Table 29 where “A” corresponds to an IC50 ≤10 nM, “B” to an IC50 >10 nM up to 100 nM, “C” is >100 nM up to 10 μM, “D” represents <49% inhibition at 10 μM and ND=not determined: […]

KRAS WT = molecular target: T2, KRAS WT (Homo sapiens, UniProt P01116); test: HTRF nucleotide exchange assay, KRAS WT; format: biochemical; details: class symbols; for pIC50: HTRF nucleotide exchange assay (NEA)
T2 construct: aa1-188 KRAS WT
Description: as §1, §2

Structure (SMILES)	pIC50 (KRAS G12D)	pIC50 (KRAS WT)	KRAS^G12D NEA (KRAS G12D)	KRAS^WT NEA (KRAS WT)
CCNC(=O)c1cc2n(n1)CCCN(c1nc(OC[C@@]34CCCN3C[C@H](F)C4)nc3c(F)c(-c4cc(O)cc5ccc(F)c(CC)c45)c4nn(C)cc4c13)C2 [Example 196, N-ethyl-5-[4-(8-ethyl-7-fluoro-3-hydroxy-1-naphthyl)-5-fluoro-7-[[(2R,8S)-2-fluoro-1,2,3,5,6,7-hexahydropyrrolizin-8-yl]methoxy]-2-methyl-pyrazolo[4,3-f]quinazolin-9-yl]-4,6,7,8-tetrahydropyrazolo[1,5-a][1,4]diazepine-2-carboxamide]	≥ 8.00	≥ 8.00		
Cn1cc2c(n1)c(-c1ncc(F)c3sc(N)c(C#N)c13)cc1nc(OC[C@@]34CCCN3C[C@H](F)C4)nc(N3CCC[C@@](C)(O)C3)c12 [Example 106, 2-amino-7-fluoro-4-[2-methyl-7-[[(2R,8S)-2-fluoro-1,2,3,5,6,7-hexahydropyrrolizin-8-yl]methoxy]-9-[(3R)-3-hydroxy-3-methyl-1-piperidyl]pyrazolo[4,3-f]quinazolin-4-yl]thieno[3,2-c]pyridine-3-carbonitrile]			D (<49% inhibition at 10 μM)	D (<49% inhibition at 10 μM)
CCc1c(F)ccc2cc(O)cc(-c3cc4nc(OC[C@@H]5C[C@H](C)CN5)nc(N5CCCn6nc(C(=O)N(C)C)cc6C5)c4c4cn(C)nc34)c12 [Example 49, 5-[4-(8-ethyl-7-fluoro-3-hydroxy-1-naphthyl)-2-methyl-7-[[(2S,4S)-4-methylpyrrolidin-2-yl]methoxy]pyrazolo[4,3-f]quinazolin-9-yl]-N,N-dimethyl-4,6,7,8-tetrahydropyrazolo[1,5-a][1,4]diazepine-2-carboxamide]		5.00 to 7.00	D (<49% inhibition at 10 μM)	
Cn1cc2c(n1)c(-c1cc(O)ccc1OC(F)(F)F)cc1nc(OC[C@@]34CCCN3C[C@H](F)C4)nc(N3CCCOCC3)c12 [Example 38, 3-[2-methyl-9-(1,4-oxazepan-4-yl)-7-[[(2R,8S)-2-fluoro-1,2,3,5,6,7-hexahydropyrrolizin-8-yl]methoxy]pyrazolo[4,3-f]quinazolin-4-yl]-4-(trifluoromethoxy)phenol]	5.00 to 7.00	5.00 to 7.00		
CCc1c(F)ccc2cc(O)cc(-c3cc4nc(OCC56CCCN5CCC6)nc(N5CCCC(C)(O)C5)c4c4cn(C)nc34)c12 (centres unmarked) [Example 28, 1-[4-(8-ethyl-7-fluoro-3-hydroxy-1-naphthyl)-7-(1,2,3,5,6,7-hexahydropyrrolizin-8-ylmethoxy)-2-methyl-pyrazolo[4,3-f]quinazolin-9-yl]-3-methyl-piperidin-3-ol]	≥ 8.00	≥ 8.00		

Further lines, results first:

pIC50 (KRAS G12D)	pIC50 (KRAS WT)	KRAS^G12D NEA (KRAS G12D)	KRAS^WT NEA (KRAS WT)	Structure (SMILES)
≥ 8.00	≥ 8.00			CCc1c(F)ccc2cc(O)cc(-c3c(F)c4nc(OCC5(CN6CC7CCC(C6)O7)CC5)nc(N5CCOCC(C)(O)C5)c4c4cn(C)nc34)c12 (centres unmarked) [Example 217, 4-[4-(8-ethyl-7-fluoro-3-hydroxy-1-naphthyl)-5-fluoro-2-methyl-7-[[1-(8-oxa-3-azabicyclo[3.2.1]octan-3-ylmethyl)cyclopropyl]methoxy]pyrazolo[4,3-f]quinazolin-9-yl]-6-methyl-1,4-oxazepan-6-ol]
≥ 8.00	≥ 8.00			CCc1c(F)ccc2cc(O)cc(-c3c(F)c4nc(OCC5(CN6CCC(O)CC6)CC5)nc(N5CCOCC(C)(O)C5)c4c4cn(C)nc34)c12 (centres unmarked) [Example 213, 4-[4-(8-ethyl-7-fluoro-3-hydroxy-1-naphthyl)-5-fluoro-7-[[1-[(4-hydroxy-1-piperidyl)methyl]cyclopropyl]methoxy]-2-methyl-pyrazolo[4,3-f]quinazolin-9-yl]-6-methyl-1,4-oxazepan-6-ol]
